The results in this text go back to patent US11578043B2, “Salt of delmopinol” (Lundbeck Pharmaceuticals Italy S.p.A., priority 2017, dated 2023).

Data set [1] can be described thus: Dynamic Vapour Sorption (DVS) experiments. The data set is classed as physicochemical. The following applies: DVS at 25° C.; for water / moisture absorbed (change in mass) when humidity is increased to 95%: relative humidity from 30% RH up to 95% RH in steps of 10% RH; for hygroscopicity (in words): up to 95% RH, non-hygroscopic = less than 1.5% moisture absorbed at 95% RH. How it is done: The DVS experiments depicted in FIGS. 3 and 4 were performed at 25° C. […] In the present context, a “non-hygroscopic” salt of delmopinol indicates a salt wherein less than 1.5% moisture is absorbed when the salt is exposed to 95% RH at 25° C. for example when determined by Dynamic Vapor Sorption (DVS) according to the method of Example 4. Dynamic Vapour Sorption (DVS) experiments were performed for delmopinol HCl and delmopinol citrate using a SMS DVS Advantage 01 changing the relative humidity from 30% RH up to 95% RH in steps of 10% RH.

A short description of data set [2]: XRPD of the salt before and after DVS (solid state change on exposure to humidity). In kind it is physicochemical. The following applies: after DVS experiments at 95% RH. How it is done:
The XRPD diffractograms in FIGS. 5 and 6 were obtained using CuKα1 radiation (λ=1.5406 Å). […] The hygroscopicity of delmopinol HCl is reflected in FIG. 4 depicting the DVS diagram obtained at 25° C. by the method described in Example 4. […] These diffractograms were obtained on another instrument.

Where a name gives a salt, the structure may show the parent alone.

As to `CCCC(CCC)CCCC1COCCN1CCO` (stereo not drawn) [delmopinol HCl, 2-(3-(4-propylheptyl)morpholino)ethan-1-ol], in data set [1], the “humidity at which the salt starts absorbing water” value is “below 50 % humidity”, the “water / moisture absorbed (change in mass) when humidity is increased to 95%” value is reported as “about 45%” and the “hygroscopicity (in words)” value is “very hygroscopic”. Besides, the “change of solid state caused by exposure to humidity (XRPD after DVS vs non-exposed material)” value in data set [2] was “irreversible”.
On to `CCCC(CCC)CCCC1COCCN1CCO.O=C(O)CC(O)(CC(=O)O)C(=O)O` (stereo not drawn) [delmopinol citrate, 2-(3-(4-propylheptyl)morpholino)ethan-1-ol], for which, in data set [1], the “water / moisture absorbed (change in mass) when humidity is increased to 95%” value was “less than 1.5%” and the “hygroscopicity (in words)” value is “non-hygroscopic”.
